Results taken from US9090651B2, “Helix 12 directed pharmaceutical products” (ENDORECHERCHE, INC., priority 2004, dated 2015).
Several values for one entry are separate records, joined by “and”; a condition that tells them apart may be missing. Identical values can stand only once. Like-named read-outs stand apart in the source and are kept apart here.

Assays:
[1] = system: Shionogi mouse mammary carcinoma cells; test: Androgenic/antiandrogenic activity on DHT-stimulated Shionogi cell growth; assay type: cell-based
Human Androgen Receptor = target: T1, Human Androgen Receptor (Homo sapiens, UniProt P10275); test: Androgen receptor binding assay (hydroxylapatite, [3H]R1881, cytosol of transfected HEK-293 cells); settings: % RBA=100×IC50 R1881/IC50 compound, transfected cells
T1 sequence (P10275 1-920): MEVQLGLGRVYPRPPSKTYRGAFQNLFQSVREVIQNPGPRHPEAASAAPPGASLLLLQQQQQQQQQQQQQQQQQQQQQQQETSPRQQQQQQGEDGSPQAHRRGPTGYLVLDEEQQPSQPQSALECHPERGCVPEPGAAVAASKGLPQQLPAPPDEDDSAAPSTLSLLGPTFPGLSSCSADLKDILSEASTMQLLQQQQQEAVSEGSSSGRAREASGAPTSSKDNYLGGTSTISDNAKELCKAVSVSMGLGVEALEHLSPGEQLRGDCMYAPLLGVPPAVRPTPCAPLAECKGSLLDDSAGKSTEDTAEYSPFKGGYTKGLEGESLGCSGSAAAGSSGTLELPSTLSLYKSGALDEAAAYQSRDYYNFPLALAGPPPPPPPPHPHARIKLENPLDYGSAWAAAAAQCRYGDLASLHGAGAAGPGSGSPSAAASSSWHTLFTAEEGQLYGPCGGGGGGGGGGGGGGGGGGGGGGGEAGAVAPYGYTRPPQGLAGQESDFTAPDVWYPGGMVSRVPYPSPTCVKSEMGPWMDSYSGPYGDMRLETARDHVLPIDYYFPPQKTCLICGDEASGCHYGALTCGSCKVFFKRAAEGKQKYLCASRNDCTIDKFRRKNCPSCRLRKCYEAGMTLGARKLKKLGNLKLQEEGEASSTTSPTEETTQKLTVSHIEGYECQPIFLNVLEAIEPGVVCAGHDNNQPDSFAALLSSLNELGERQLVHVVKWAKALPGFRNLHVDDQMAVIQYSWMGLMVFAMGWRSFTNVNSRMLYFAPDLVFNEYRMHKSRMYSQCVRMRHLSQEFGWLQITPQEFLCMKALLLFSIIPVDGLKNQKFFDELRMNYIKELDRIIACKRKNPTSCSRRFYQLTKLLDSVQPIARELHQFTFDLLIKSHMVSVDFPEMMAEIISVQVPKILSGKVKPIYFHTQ

rat prostate = test: Systemic antiandrogenic activity, orchidectomized immature male rats with DHT implant: prostate weight; assay type: in vivo; settings: for inhibition in vivo at 0.5 mg: Rattus norvegicus, sc, 168 h, read-out: IN VIVO Rat s.c. (+DHT) Prostate % inhibition, s.c., 0.5 mg/animal once daily for 7 days, +DHT
Procedure: (§1) Immature male rats (Crl:CD(SD)Br) 22 to 24-day old were obtained from Charles-River, Inc. (St-Constant, Quebec, Canada) and housed up to 5 per cage in plastic bins in a temperature (23±1° C.)- and light (12 h light/day, lights on at 7 h15)-controlled environment. The rats were fed rodent chow and tap water ad libitum. The day following their arrival, the animals were orchidectomized (CX) under Isoflurane anesthesia via scrotal route and randomly assigned to groups of 5 animals.
(§2) Compounds were solubilized (when possible) in dimethylsulfoxide (DMSO, 10% final concentration) and administered as suspension in 0.4% methylcellulose. […] One group of animals received the antiandrogen Flutamide as reference. The animals were killed by cervical dislocation under isoflurane anesthesia on the 8th morning following castration. The ventral prostate and seminal vesicles were rapidly dissected and weighed.
(§3) W is the weight of the prostate or the seminal vesicle.

rat seminal vesicle = test: Systemic antiandrogenic activity, orchidectomized immature male rats with DHT implant: seminal vesicle weight; assay type: in vivo; settings: for inhibition in vivo at 0.5 mg: Rattus norvegicus, sc, 168 h, read-out: IN VIVO Rat s.c. (+DHT) SV % inhibition, s.c., 0.5 mg/animal once daily for 7 days, +DHT; for IN VIVO Rat s.c. (+DHT) SV % inhibition: 0.5 mg/animal once daily for 7 days
Procedure: as §1, §2, §3

[2] = Mus musculus, read-out: Shionogi Antiandrogenic activity IC50 (nM), inhibition of DHT-stimulated Shionogi cell number
[3] = read-out: Shionogi Antiandrogenic activity IC50, inhibition of DHT-stimulated Shionogi cell number

SMILES	IC50 [1, 2]	Androgen Receptor Binding (%) Human RBA R1881 = 100 (Human Androgen Receptor)	inhibition in vivo at 0.5 mg (rat prostate)	inhibition in vivo at 0.5 mg (rat seminal vesicle)	other results
CCC(CC)N(C)C(CC)c1cccc(OCC[C@]23CCC4=C5CCC(=O)C=C5CCC4C2CC[C@@H]3O)c1 (mixture of isomers) [EM-6860]	5.2 nM	33%	12%	0%	
CCCC(NC(CC)CC)c1cccc(OCC[C@]23CCC4C5CCC(=O)C=C5C[C@@H](C)C4C2CC[C@@H]3O)c1 (mixture of isomers) [EM-7128]	0.75 nM	120%	41%	2%	
CCC(NC1CCCC1)c1cc(F)cc(OCC[C@]23CCC4C(CCC5CC(=O)CC[C@@]54C)C2CC[C@@H]3O)c1 (stereo partly drawn) [EM-6761]	1.2 nM	141%	33%	0%	
CCC(NC(C)C)c1cccc(OCC[C@]23CCC4C(CCC5=CC(=O)CC[C@@]54C)C2CC[C@]3(C)O)c1 (stereo partly drawn) [EM-6918]		120%	29%	0%	
CCC(NC1CCCC1)c1cccc(OCC[C@]23CCC4C5CCC(=O)C=C5C[C@@H](C)C4C2CC[C@]3(C)O)c1 (mixture of isomers) [EM-6733]	1.3 nM	62%	34%		IN VIVO Rat (+DHT) Prostate % inhibition (per os) (rat prostate; +DHT): 34%; IN VIVO Rat (+DHT) SV % inhibition (per os) (rat seminal vesicle; +DHT): 6%
CC(NC1CCCCC1)c1cccc(OCC[C@]23CCC4C(CCC5C/C(=N\O)CC[C@@]54C)C2CC[C@@H]3O)c1 (stereo partly drawn) [EM-6418]	5 nM	31%	21%	13%	IN VIVO Rat (+DHT) Prostate % inhibition (per os) (rat prostate; +DHT): 16%; IN VIVO Rat (+DHT) SV % inhibition (per os) (rat seminal vesicle; +DHT): 32%
CCC(CC)N(C)C(CC)c1cccc(OCC[C@]23CCC4C5CCC(=O)C=C5C[C@@H](C)C4C2CC[C@]3(C)O)c1 (mixture of isomers) [EM-7127]	0.91 nM	128%	20%	0%	
C[C@]1(O)CCC2C3CCC4=CC(=O)CCC4C3CC[C@@]21CCOc1cccc(CN2CCCCC2)c1 (stereo partly drawn) [EM-6654]	9.5 nM	25%	0%		
CCCC(NC(C)C)c1cccc(OCC[C@]23CCC4C(CCC5=CC(=O)CC[C@@]54C)C2CC[C@]3(C)O)c1 (mixture of isomers) [EM-7133]	1.1 nM	55%	32%	40%	
C[C@@H]1CC2=CC(=O)CCC2C2CC[C@@]3(CCOc4cccc(C[S+]([O-])c5ccccc5)c4)C(CC[C@]3(C)O)C21 (mixture of isomers) [EM-7230]		39%	0%	0%	
CCC(CC)NC(CC)c1cc(OCC[C@]23CCC4C(CCC5=CC(=O)CC[C@@]54C)C2CC[C@@H]3O)ccn1 (stereo partly drawn) [EM-7136]	0.2 nM	92.7% and 93%	27%	35%	
CCCC(NC(CC)CC)c1cccc(OCC[C@]23CCC4C(CCC5=CC(=O)CC[C@@]54C)C2CC[C@@H]3O)c1 (stereo partly drawn) [EM-6841]		139%			IC50 [1, 3]: 0.1 nM; IN VIVO Rat s.c. (+DHT) Prostate % inhibition (rat prostate; s.c., 0.5 mg/animal once daily for 7 days, +DHT): 21%; IN VIVO Rat s.c. (+DHT) SV % inhibition (rat seminal vesicle; +DHT): 5%
CCC(CC)N(C)C(CC)c1cccc(OCC[C@]23CCC4C5CCC(=O)C=C5CCC4C2CC[C@]3(C)O)c1 (stereo partly drawn) [EM-6902]	0.06 nM	107%	2%	0%	
CCC(NC1CCCC1)c1cccc(OCC[C@]23CCC4C5CCC(=O)C=C5C[C@@H](C)C4C2CC[C@@H]3O)c1 (mixture of isomers) [EM-6681]	1.1 nM	56%	15%	19%	
CCCC(NC(C)C)c1cccc(OCC[C@]23C=CC4=C5CCC(=O)C=C5CCC4C2CC[C@@]3(C)O)c1 (mixture of isomers) [EM-7164]	6 nM	27%		0%	
CCCC(NC1CCCC1)c1cccc(OCC[C@]23CCC4C5CCC(=O)C=C5C[C@H](C)C4C2CC[C@]3(C)O)c1 (stereo partly drawn) [EM-7218]		112%	35%	0%	
CCC(NC1CCCCC1)c1cccc(OCC[C@]23CCC4C(CCC5=CC(=O)CC[C@@]54C)C2CC[C@@H]3O)c1 (stereo partly drawn) [EM-6798]		118%	20%	29%	IN VIVO Rat (+DHT) Prostate % inhibition (1 mg, po) (rat prostate; 1 mg, po, +DHT): 17%; IN VIVO Rat (+DHT) SV % inhibition (1 mg, po) (rat seminal vesicle; 1 mg, po, +DHT): 19%
CCC(CC)NC(CN(C)C)c1cccc(OCC[C@]23CCC4C(CCC5CC(=O)CC[C@@]54C)C2CC[C@@H]3O)c1 (stereo partly drawn) [EM-7118]	7.2 nM	176%	31%	0%	
CCCC(NC(CC)CC)c1cccc(OCC[C@]23CCC4C5CCC(=O)C=C5C(C)(C)CC4C2CCC3=O)c1 (stereo partly drawn) [EM-6993]	16.4 nM	35%		0%	
CCCC(NC(CC)CC)c1cccc(OCC[C@]23CCC4C5CCC(=O)C=C5C[C@@H](C)C4C2CC[C@]3(C)O)c1 (mixture of isomers) [EM-7129]	0.96 nM	197%	37%	10%	
CCC(Cc1cccc(OCC[C@]23CCC4C5CCC(=O)C=C5CCC4C2CC[C@@H]3O)c1)NC1CCCC1 (stereo partly drawn) [EM-6753]	19 nM	8.2%	0%		
CCCC(NC(CC)CC)c1cccc(OCC[C@]23CCC4C(CCC5=CC(=O)CC[C@@]54C)C2CC[C@@H]3O)c1 (stereo partly drawn) [EM-6928]		146% and 181%			IC50 [1, 3]: 0.04 nM; IN VIVO Rat s.c. (+DHT) SV % inhibition (rat seminal vesicle; +DHT): 0%
CCCC(NC(CC)CC)c1cccc(OCC[C@]23CCC4C5CCC(=O)C=C5C(C)(C)CC4C2CC[C@]3(C)O)c1 (mixture of isomers) [EM-7075]	9.7 nM	57%	0%	0%	
CCCCC(NC1CCCCC1)c1cccc(OCC[C@]23CCC4C(CCC5CC(=O)CC[C@@]54C)C2CCC3=O)c1 (stereo partly drawn) [EM-6894]	4.1 nM	129.7%			
C[C@@H](c1cccc(OCC[C@]23CCC4C(CCC5CC(=O)CC[C@@]54C)C2CC[C@@H]3O)c1)N(C)C1CCCCC1 (stereo partly drawn) [EM-6413]	0.1 nM	176% and 114%			
CC[C@H](NC1CCCCC1)c1cccc(OCC[C@]23CCC4C(CCC5CC(=O)CC[C@@]54C)C2CCC3O)c1 (stereo partly drawn) [EM-7055]	0.64 nM	242%			
C[C@H]1CCCCC1NCc1cccc(OCC[C@]23CCC4C(CCC5CC(=O)CC[C@@]54C)C2CC[C@@H]3O)c1 (stereo partly drawn) [EM-6438]	2.2 nM	119%			
